{"source": "patent US9890407B2", "about": "“Method for synthesizing cellulose in vitro” (University of Virginia Patent Foundation, priority 2013, dated 2018)", "key": {"Rs BcsA-B complex [1]": {"tested_on": "Rs BcsA-B complex", "test": "Enzyme-coupled (PK/LDH) cellulose synthase activity assay, UDP formation followed via NADH oxidation at 340 nm", "type": "biochemical, Rhodobacter sphaeroides", "details": "for residual activity with alternative substrate as only carbohydrate source, relative to UDP-Glc: 5 mM substrate, 0.5 μM PL-reconstituted BcsA-B", "protocol": "FIG. 3A-3D (also referred to as Example 1, FIG. 3): Kinetic analysis of cellulose synthesis and stimulation by cyclic-di-GMP. (FIG. 3A) Cellulose synthesis reactions were performed in the presence of IU PK and LDH, 0.5 mM NADH and 1 mM PEP. The LDH-catalyzed oxidation of NADH to NAD^+ was monitored spectrophotometrically at 340 nm. […] Addition of 1 mM UDP to the reaction rapidly depletes NADH by circumventing cellulose synthesis. […] The data were fit to monophasic Michaelis-Menten kinetics. […] All reactions were performed at room temperature with 0.5 μM ND-reconstituted BcsA-B in a total volume of 20 μl.\nThus, the second product of the cellulose synthase reaction is UDP. […] Because PK recognizes UDP but not UMP as substrate (36), the successful coupling of cellulose synthesis with its activity implies the formation of UDP. To ensure that all BcsA-B complexes are accessible to the substrates and can contribute to the observed reaction, the complex was reconstituted into lipid nanodiscs (ND) (FIG. S4), which are edge-stabilized, planar lipid bilayer discs approximately 10 nm in diameter (37). At this size, each ND most likely contains a single BcsA-B complex (38).\n(§1) Pyruvate kinase (PK)—and lactate dehydrogenase (LDH)-coupled activity assays were performed by incubating 0.5 μM cellulose synthase with 1 U PK and 1 U LDH, 0.5 mM NADH, 1 mM phosphoenolpyruvate, and 30 mM MgCl2 in 20 mM Tris pH 7.5, 100 mM NaCl, 5 mM cellobiose and 10% glycerol in a total volume of 20 μL. The cellulose synthase complex was added last to the reaction mix after a pre-incubation for 10 min at RT. The decrease in absorbance at 340 nm was measured in a SpectraMax plate reader in Corning 384 well clear flat bottom assay plates. Control reactions in the absence of cellulose synthase were performed to determine the background NADH oxidation. Data were plotted and analyzed in Origin (5) and fitted to monophasic Michaelis-Menten kinetics as described (3)."}, "[2]": {"biological_target": "T1, Rhodobacter sphaeroides BcsA-B complex (cellulose synthase), wild type, BcsA SEQ ID NO: 1, BcsB SEQ ID NO: 3 (Cereibacter sphaeroides, UniProt Q3J125)", "T1 construct": "pETDuet, E. coli C43; purified, reconstituted in nanodiscs, proteoliposomes or detergent", "T1 sequence (Q3J125 1-788)": "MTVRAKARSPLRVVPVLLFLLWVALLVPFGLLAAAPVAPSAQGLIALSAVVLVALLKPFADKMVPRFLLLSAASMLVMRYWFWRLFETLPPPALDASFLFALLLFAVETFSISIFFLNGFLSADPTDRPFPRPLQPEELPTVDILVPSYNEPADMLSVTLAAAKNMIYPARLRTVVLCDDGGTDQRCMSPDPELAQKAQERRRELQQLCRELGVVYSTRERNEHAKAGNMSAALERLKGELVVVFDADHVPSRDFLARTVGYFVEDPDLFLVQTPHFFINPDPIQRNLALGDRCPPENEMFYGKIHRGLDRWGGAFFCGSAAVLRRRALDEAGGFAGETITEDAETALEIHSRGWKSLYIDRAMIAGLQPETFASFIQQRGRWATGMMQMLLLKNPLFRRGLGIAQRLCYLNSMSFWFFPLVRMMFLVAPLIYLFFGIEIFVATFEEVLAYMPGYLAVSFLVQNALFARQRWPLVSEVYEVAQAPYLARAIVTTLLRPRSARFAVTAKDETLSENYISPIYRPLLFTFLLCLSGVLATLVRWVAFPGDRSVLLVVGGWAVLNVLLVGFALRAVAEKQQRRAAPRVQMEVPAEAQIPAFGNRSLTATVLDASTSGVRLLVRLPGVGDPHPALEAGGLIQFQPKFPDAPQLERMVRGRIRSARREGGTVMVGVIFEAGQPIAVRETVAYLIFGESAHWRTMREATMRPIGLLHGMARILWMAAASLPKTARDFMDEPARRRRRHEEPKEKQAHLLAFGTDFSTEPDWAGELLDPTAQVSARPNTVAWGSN", "T1 sequence (Q3J126 21-725 partner)": "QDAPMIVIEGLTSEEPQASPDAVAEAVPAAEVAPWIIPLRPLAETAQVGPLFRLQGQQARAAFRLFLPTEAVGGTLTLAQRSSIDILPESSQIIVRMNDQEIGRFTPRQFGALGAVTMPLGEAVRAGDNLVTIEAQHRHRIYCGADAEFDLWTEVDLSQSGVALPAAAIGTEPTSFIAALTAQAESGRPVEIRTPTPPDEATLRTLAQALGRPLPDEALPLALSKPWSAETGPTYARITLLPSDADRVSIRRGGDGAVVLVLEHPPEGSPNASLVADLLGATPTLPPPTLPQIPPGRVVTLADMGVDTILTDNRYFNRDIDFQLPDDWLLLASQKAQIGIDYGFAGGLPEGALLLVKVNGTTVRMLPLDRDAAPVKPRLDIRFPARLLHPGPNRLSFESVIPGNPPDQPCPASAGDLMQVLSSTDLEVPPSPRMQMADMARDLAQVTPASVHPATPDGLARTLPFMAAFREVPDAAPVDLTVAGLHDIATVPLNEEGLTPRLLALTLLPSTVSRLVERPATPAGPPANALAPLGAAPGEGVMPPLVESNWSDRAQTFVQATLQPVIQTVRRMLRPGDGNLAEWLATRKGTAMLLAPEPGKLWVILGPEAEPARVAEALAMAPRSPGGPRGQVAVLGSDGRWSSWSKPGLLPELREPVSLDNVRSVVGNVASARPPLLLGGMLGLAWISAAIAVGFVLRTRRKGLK", "test": "Inhibition of cellulose synthesis by alternative substrates (enzyme-coupled assay, PLs-reconstituted BcsA-B)", "type": "biochemical", "details": "1 mM UDP-Glc; for inhibition of polymer synthesis by alternative UDP-sugars: increasing concentrations of UDP-sugar; for reduction of the apparent reaction rate (inhibition): 5 mM alternative UDP-sugar, 90 min, 37° C.", "protocol": "as §1"}, "Rs BcsA-B complex [3]": {"tested_on": "Rs BcsA-B complex", "test": "Cellulose synthase sedimentation assay (3H-labeled water-insoluble cellulose, scintillation counting)", "type": "biochemical, Rhodobacter sphaeroides", "details": "for divalent cation supporting cellulose synthase activity: 20 mM cation, 45 min 37° C.", "protocol": "(FIG. 4A) Enzyme-coupled cellulose synthesis assays were performed as described in FIG. 3 in the absence or presence of 0.1 mg/ml E. coli BesZ. […] Inset: Radioactive sedimentation assay performed with ND-reconstituted BcsA-B synthesizing cellulose in the absence or presence of BcsZ. […] The obtained product is quantified relative to the polymer formed in the absence of any nucleoside diphosphate.\nFIG. 9A-9B (also referred to as Example 1, Supplementary FIG. 3): Cation selectivity and pH optimum of cellulose synthase. (FIG. 9A) Cellulose synthesis reactions were performed in the presence of 20 mM of the indicated cations or in the absence of any additional divalent cations with and without addition of 20 mM EDTA. The activities are shown relative to the activity in the presence of magnesium. […] All activity assays were performed for 45 min at 37° C. with 1 μM PLs-reconstituted. Rs BcsA-B and by quantifying the accumulation of ^3H-labeled water insoluble cellulose as described.\nFollowing incubation at 37° C. for 45 min, the polymerization reaction was terminated by addition of 2% SDS and the water-insoluble polymer was pelleted by centrifugation at 15,000 rpm at room temperature (RT). The obtained pellet was resuspended in 20 μL 50 mM Tris pH 7.5, 0.1 M NaCl and spotted at the origin of a descending Whatman-2MM chromatography paper, which was developed in an aqueous solution of 60% ethanol. For enzymatic degradation, the pellet was resuspended in 20 μL 50 mM sodium acetate pH 4.5 and 100 mM NaCl and was digested with 0.1 mg/ml of endo-β-1,4- or endo-β-1,3 glucanase from Aspergillus niger (TCI) or Trichoderma sp. (Megazyme), respectively. Following paper chromatography, the high molecular weight polymer retained at the origin was quantified by scintillation counting.\nFollowing synthesis, the reactions were treated as described above."}, "[4]": {"details": "0.1 mg/ml E. coli BcsZ, ND-reconstituted BcsA-B"}}, "data": [{"molecule": "O=c1ccn([C@@H]2O[C@H](COP(=O)(O)OP(=O)(O)O[C@H]3OC[C@H](O)[C@H](O)[C@H]3O)[C@@H](O)[C@H]2O)c(=O)[nH]1", "note": "[UDP-arabinose]", "values": [{"measurement": "residual activity with alternative substrate as only carbohydrate source, relative to UDP-Glc", "setting": "Rs BcsA-B complex [1]", "result": "about 20%"}]}, {"molecule": "O=c1ccn([C@@H]2O[C@H](COP(=O)(O)OP(=O)(O)O[C@H]3OC[C@@H](O)[C@H](O)[C@H]3O)[C@@H](O)[C@H]2O)c(=O)[nH]1", "note": "[UDP-Xyl, UDP-xylose]", "values": [{"measurement": "inhibition of polymer synthesis by alternative UDP-sugars", "setting": "[2]", "result": "strongest inhibitor"}, {"measurement": "reduction of the apparent reaction rate (inhibition)", "setting": "[2]", "result": "about 60%"}]}, {"molecule": "[Mn+2]", "note": "[Mn2+]", "values": [{"measurement": "divalent cation supporting cellulose synthase activity", "setting": "Rs BcsA-B complex [3]; 1 μM PL-reconstituted BcsA-B", "result": "approximately equal activity levels"}]}, {"molecule": "O=c1ccn([C@@H]2O[C@H](COP(=O)(O)OP(=O)(O)O)[C@@H](O)[C@H]2O)c(=O)[nH]1", "note": "[UDP, uridine diphosphate]", "values": [{"measurement": "product formed relative to absence of nucleoside diphosphate", "setting": "Rs BcsA-B complex [3]; 0.7 mM UDP, 0.5 mM UDP-Glc, 1 μM PL-reconstituted BcsA-B, 60 min 37° C.", "result": 50, "unit": "%"}, {"measurement": "mode of inhibition of cellulose synthase", "setting": "Rs BcsA-B complex [3]; 0.7 mM UDP, increasing UDP-Glc", "result": "competitive"}]}, {"molecule": "CC(=O)N[C@H]1[C@@H](OP(=O)(O)OP(=O)(O)OC[C@H]2O[C@@H](n3ccc(=O)[nH]c3=O)[C@H](O)[C@@H]2O)O[C@H](CO)[C@@H](O)[C@@H]1O", "note": "[UDP-NAG, UDP-N-acetyl glucosamine]", "values": [{"measurement": "inhibition of polymer synthesis by alternative UDP-sugars", "setting": "[2]", "result": "concentration-dependent inhibition"}, {"measurement": "reduction of the apparent reaction rate (inhibition)", "setting": "[2]", "result": 20, "unit": "%"}]}, {"molecule": "[Mg+2]", "note": "[Mg2+]", "values": [{"measurement": "divalent cation supporting cellulose synthase activity", "setting": "Rs BcsA-B complex [3]; 1 μM PL-reconstituted BcsA-B", "result": "approximately equal activity levels"}]}, {"molecule": "O=c1ccn([C@@H]2O[C@H](COP(=O)(O)OP(=O)(O)O[C@H]3OC[C@@H](O)[C@H](O)[C@H]3O)[C@@H](O)[C@H]2O)c(=O)[nH]1", "note": "[UDP-xylose]", "values": [{"measurement": "residual activity with alternative substrate as only carbohydrate source, relative to UDP-Glc", "setting": "Rs BcsA-B complex [1]", "result": "about 20%"}]}, {"molecule": "O=C(O)[C@H]1O[C@H](OP(=O)(O)OP(=O)(O)OC[C@H]2O[C@@H](n3ccc(=O)[nH]c3=O)[C@H](O)[C@@H]2O)[C@H](O)[C@@H](O)[C@@H]1O", "note": "[UDP-glucuronic acid]", "values": [{"measurement": "residual activity with alternative substrate as only carbohydrate source, relative to UDP-Glc", "setting": "Rs BcsA-B complex [1]", "result": "about 20%"}]}, {"molecule": "CC(=O)N[C@H]1[C@@H](OP(=O)(O)OP(=O)(O)OC[C@H]2O[C@@H](n3ccc(=O)[nH]c3=O)[C@H](O)[C@@H]2O)O[C@H](CO)[C@@H](O)[C@@H]1O", "note": "[UDP-N-acetyl glucosamine]", "values": [{"measurement": "residual activity with alternative substrate as only carbohydrate source, relative to UDP-Glc", "setting": "Rs BcsA-B complex [1]", "result": "about 20%"}]}, {"molecule": "BcsZ: E. coli periplasmic cellulase encoded in cellulose synthase operons (protein, UniProt P37651 22-368, looked up) Endoglucanase: ACTWPAWEQFKKDYISQEGRVIDPSDARKITTSEGQSYGMFSALAANDRAAFDNILDWTQNNLAQGSLKERLPAWLWGKKENSKWEVLDSNSASDGDVWMAWSLLEAGRLWKEQRYTDIGSALLKRIAREEVVTVPGLGSMLLPGKVGFAEDNSWRFNPSYLPPTLAQYFTRFGAPWTTLRETNQRLLLETAPKGFSPDWVRYEKDKGWQLKAEKTLISSYDAIRVYMWVGMMPDSDPQKARMLNRFKPMATFTEKNGYPPEKVDVATGKAQGKGPVGFSAAMLPFLQNRDAQAVQRQRVADNFPGSDAYYNYVLTLFGQGWDQHRFRFSTKGELLPDWGQECANSH", "values": [{"measurement": "effect on BcsA-B's apparent reaction rate", "setting": "Rs BcsA-B complex [1]; [4]", "result": "does not change"}, {"measurement": "effect on accumulation of HMW cellulose", "setting": "Rs BcsA-B complex [3]; [4]", "result": "prevents the accumulation of HMW cellulose"}]}]}
